This note sets out measurements from patent publication US20210038537A1, “Emodin for Use in Regulating Expression of Proteins Involved in Inflammation” (UNIVERSITY OF SOUTH CAROLINA, priority 2018, published 2021).

Experiment [1] deals with azoxymethane (AOM)/dextran sodium sulfate (DSS) mouse model of colorectal cancer. The experiment can be described thus: AOM/DSS mouse model of colorectal cancer, tumor number. In kind it is in vivo. The note with it: emodin 40 mg/Kg via gavage three days a week for 10 weeks; vehicle approximately 7 tumors. As to the method:
Effects of dietary emodin on tumorigenesis were examined in an azoxymethane (AOM)/dextran sodium sulfate (DSS) mouse model of colorectal cancer. Colorectal cancer was developed in mice according to known methods. Briefly, mice received a single injection of AOM (10 mg/Kg) followed by 2 cycles of DSS (2% in the water for 1 week followed by 2 weeks of plain water) as previously described (see, e.g., Tanaka T. Colorectal carcinogenesis: Review of human and experimental animal studies. J Carcinog 2009; 8:5; Enos R T, Velazquez K T, McClellan J L, et al. High-fat diets rich in saturated fat protect against azoxymethane/dextran sulfate sodium-induced colon cancer. American journal of physiology Gastrointestinal and liver physiology 2016; 310:G906-19).
The mice were administered either emodin or vehicle treatment (n=12) via gavage at a dose of 40 mg/Kg three days a week for the duration of the AOM/DSS protocol (10 weeks).

In experiment [2] the test system is Apc^min/+ model of intestinal tumorigenesis. The experiment can be described thus: Apc^min/+ model of intestinal tumorigenesis, polyp number. The format is in vivo, mouse. Conditions: emodin 40 mg/Kg via gavage three days a week for 12 weeks; vehicle approximately 75 polyps. As for the experimental part: The Apc^min/+ model of intestinal tumorigenesis was utilized to test anti-tumor effects of emodin. Mice were administered emodin or vehicle treatment (n=7/group) via gavage at a dose of 40 mg/Kg three days a week for 12 weeks. Results are illustrated in FIG. 2. As indicated, the vehicle treated group had approximately 75 polyps per mouse, whereas emodin treated mice had less than 40 polyps per mouse.

The subject of another experiment is MC38 tumors. The experiment can be described thus: MC38 mouse model of adenocarcinoma, tumor weight. The format is in vivo. Conditions: emodin 40 mg/Kg via gavage three days a week for 4 weeks; vehicle approximately 1,200 mg. As for the experimental part: The MC38 mouse model of adenocarcinoma was used. Mice (n=4/group) were administered emodin or vehicle treatment via gavage at a dose of 40 mg/Kg three days a week for 4 weeks. Following the 4-week treatment period tumors in the vehicle treated group weighed approximately 1,200 mg, whereas those in the emodin treated group weighed approximately 400 mg.

The subject of experiment [3] is F4/80+ cells (macrophages) in MC38 colon tumors. The experiment can be described thus: Macrophage infiltration into MC38 colon tumors by flow cytometry. In kind it is in vivo, mouse. The note with it: emodin 40 mg/Kg 3 times a week for 4 weeks, tumors of similar sizes. As to the method: To test the effects of emodin on TAMs in colorectal cancer, macrophage infiltration into MC38 colon tumors following control or emodin (40 mg/Kg) treatment (3 times a week for 4 weeks) was examined using flow cytometry. Tumors of similar sizes were selected so that emodin effects could be determined independent of any changes in tumor size.

Experiment [4] deals with pro-tumor markers (Hif1a, IL-10, IL-6 and MCP-1). The experiment can be described thus: Pro-tumor marker expression in MC38 tumors. In kind it is in vivo, mouse. The note with it: emodin 40 mg/Kg. As for the experimental part:
To test the effects of emodin on TAMs in colorectal cancer, macrophage infiltration into MC38 colon tumors following control or emodin (40 mg/Kg) treatment (3 times a week for 4 weeks) was examined using flow cytometry. Tumors of similar sizes were selected so that emodin effects could be determined independent of any changes in tumor size. […] The effects of emodin on select pro-tumor markers (Hif1a, IL-10, IL-6 and MCP-1) in a tumor was also examined.

Experiment [5] deals with MCP-1, TNFα, and NOS2 expression. Put plainly: 5FU-induced colon inflammation, inflammatory gene expression by qPCR in a non-disease model. Conditions: 5FU 3 cycles (40 then 20 mg/Kg) plus emodin 40 mg/Kg 3 times per week; vs 5FU plus vehicle. The format is in vivo, C57BL/6 mice. As to the method: FIG. 6 illustrates the inhibition of 5FU-induced colon inflammation. 5FU treated mice were administered emodin (40 mg/kg 3×wk) or vehicle treatment (n=5). A non-disease phosphate buffer saline (PBS) group was used as a control (n=5). Following 5FU treatment inflammatory mediators were analyzed in the colon via q PCR. *p<0.05.
The effects of dietary emodin on colon inflammation following 5FU administration were examined in a non-disease model. C57BL/6 mice were assigned to either emodin or control treatment (n=5). […] 5FU or PBS was administered daily for 5-days followed by a 9-day recovery (×3 cycles). The dose of 5FU was 40 mg/Kg in cycle 1 and 20 mg/Kg in cycles 2 and 3. Emodin (40 mg/Kg) was administered 3 times per week for the duration of the 5FU treatment.
Given the role of inflammation in chemotherapy-induced toxicity, an analysis of inflammatory genes from the intestines was performed.

The subject of another experiment is 5FU toxicity. Put plainly: Functional measures and survival following 5FU administration in a non-disease model. In kind it is in vivo, C57BL/6 mice. As to the method: Given the positive effects of emodin on inflammation associated with 5FU toxicity, use of emodin was further examined to determine any improvement in quality of life measures with emodin/5FU treatment vs. 5FU treatment alone. The effects of emodin on functional measures and survival following 5FU administration were examined in a non-disease model.
C57BL/6 mice were assigned to either emodin (40 mg/kg 3×per week; n=9) or vehicle treatment (n=10). 5FU was administered at 40 mg/kg in cycle 1 and 20 mg/kg in cycles 2 and 3. Emodin was administered 3 times per week for the duration of the 5FU treatment.
Following the final 5FU cycle, mice underwent a mechanical stimulation test and a run to fatigue.

Where [6] appears, read: following the final 5FU cycle, emodin 40 mg/kg 3x per week.

For the molecule `Cc1cc(O)c2c(c1)C(=O)c1cc(O)cc(O)c1C2=O` [emodin, Emodin], in experiment [1], the “number of tumors following the 10-week AOM/DSS protocol” value is “approximately 5 tumors”. Besides, in experiment [2], the polyps per mouse result is “less than 40 polyps per mouse”. Besides, the tumor weight entry in the experiment with MC38 tumors was “approximately 400 mg”. In addition, the “F4/80+ cells (macrophages) in colon tumors” value in experiment [3] is listed as “significantly reduce”. Further, in experiment [4], the “relative expression of Hif1a in tumor” value is reported as “decrease in relative marker expression”, the “relative expression of IL-6 in tumor” value is on record as “decrease in relative marker expression”, the “relative expression of IL-10 in tumor” value is given as “decrease in relative marker expression” and the “relative expression of MCP-1 in tumor” value is given as “decrease in relative marker expression”. Moreover, in experiment [5], the “MCP-1 expression in colon/intestines after 5FU” value is “decrease”, the “NOS2 expression in colon/intestines after 5FU” value is reported as “decrease” and the “TNFα expression in colon/intestines after 5FU” value is “decrease”. For the same molecule, in the experiment on 5FU toxicity (3 cycles of 5FU plus emodin 40 mg/kg 3x per week), the “body weight loss associated with 5FU treatment” value is on record as “prevented the body weight loss”. The “survival of the 5FU regime” value in the experiment on 5FU toxicity (3 cycles of 5FU plus emodin 40 mg/kg 3x per week, vehicle group 50%) is recorded as 100%. Moreover, in the experiment with 5FU toxicity (setting [6]), the “5FU induced fatigability (run to fatigue)” value is on record as “offset” and the “5FU induced sensitivity to pain (mechanical stimulation test)” value was “offset”.
